Tests used:
CDK6/cyclin D1 = CDK6/cyclin D1 (Homo sapiens (Human), UniProt Q00534); test: CDK6 Caliper Mobility Shift assay; format: biochemical
Procedure, shortened: (§1)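 Caliper mobility-shift kinase assay with FAM-labeled peptide substrate. CDK4/cyclin D1 (15 nM) ran in 20 mM HEPES pH 7.5, 0.01% Triton X-100 at […] ATP; CDK6/cyclin D1 (7.5 nM) in 50 mM HEPES pH 7.5, 0.0015% BRIJ-35 at […] ATP. Compound was pre-incubated 10 min, reactions ran at 28 °C, and IC50 came from percent conversion inhibition.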

[1] = test system: MCF-7 human breast cancer cells; test: CELLTITER-GLO luminescent cell viability assay; format: cell-based; details: MCF7, 192 h, MCF-7 cells, 8 days, read-out: EC50 (Effect on Cell Viability)
Procedure, shortened: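 MCF-7 cells grown in EMEM with 10% FBS and insulin, seeded at 3,000 cells/well and left to adhere overnight. Compound exposure lasted 8 days at 37 °C; viability was read by CellTiter-Glo luminescence.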

BALB/c mice [2] = test: Irinotecan-induced diarrhea/constipation mouse model; format: in vivo; details: Day 7
Method: A compound was evaluated in an irinotecan-induced diarrhea/constipation mouse model for its protective effect on the cytotoxicity induced by a chemotherapy drug. On day 0, BALB/c mice (20-25 g, 7-8 weeks of age) were randomly divided into 3 groups (vehicle, irinotecan, and compound treatment) with 10 mice in each group. In the vehicle group, the mice were administered orally with the same medium in the same amount as used in the treatment group for the compound and then injected with the same medium in the same amount as used in the irinotecan group. In the irinotecan group, the mice were administered orally with the same medium in the same amount as used in the treatment group for the compound and then injected with irinotecan (240 mg/kg). In the treatment group, the mice were administrated orally with the compound and then injected with irinotecan (240 mg/kg). The compound was formulated with a 0.5% CMC solution. […]
(§2) On Day 7, the diarrhea grade of each mouse was determined according to the method described in Kurita et al., Cancer Chemother. Pharmacol. 2000, 46, 211-20, the disclosure of which is incorporated herein by reference in its entirety. The diarrhea remission rates were calculated using the formula of Diarrhea remission rate (%)=(diarrhea grade in 5-FU group−diarrhea grade in treatment group)/diarrhea grade in 5-FU group×100%.

CDK4/cyclin D1 = CDK4/cyclin D1 (Homo sapiens (Human), UniProt P11802); test: CDK4 Caliper Mobility Shift assay; format: biochemical
CDK4/cyclin D1, sequence (P11802 whole entry): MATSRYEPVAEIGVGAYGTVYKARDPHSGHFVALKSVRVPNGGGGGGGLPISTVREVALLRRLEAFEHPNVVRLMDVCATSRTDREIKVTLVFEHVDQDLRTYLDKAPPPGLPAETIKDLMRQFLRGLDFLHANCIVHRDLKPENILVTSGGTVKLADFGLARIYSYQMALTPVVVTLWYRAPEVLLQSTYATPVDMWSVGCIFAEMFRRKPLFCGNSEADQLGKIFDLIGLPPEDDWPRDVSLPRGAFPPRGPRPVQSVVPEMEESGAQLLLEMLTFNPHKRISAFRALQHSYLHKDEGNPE
CDK4/cyclin D1, sequence (P24385 whole entry partner): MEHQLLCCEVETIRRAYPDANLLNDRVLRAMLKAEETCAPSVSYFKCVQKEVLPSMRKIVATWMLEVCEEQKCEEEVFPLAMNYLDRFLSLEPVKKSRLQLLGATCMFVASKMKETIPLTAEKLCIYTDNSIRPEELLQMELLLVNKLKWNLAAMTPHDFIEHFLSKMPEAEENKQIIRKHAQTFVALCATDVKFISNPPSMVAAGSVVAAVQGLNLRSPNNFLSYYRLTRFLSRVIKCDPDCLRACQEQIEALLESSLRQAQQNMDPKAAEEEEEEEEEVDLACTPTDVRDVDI
Procedure, shortened: as §1

[3] = test system: COLO205 human colon cancer cells; test: CASPASE-GLO 3/7 apoptosis assay (protection against chemotherapy drug induced cytotoxicity); format: cell-based
Method: The CASPASE-GLO 3/7 apoptosis assay was used to evaluate the protective effect of a compound on the cytotoxicity induced by a chemotherapy drug. The apoptosis assay was carried out using COLO205 human colon cancer cells. The cells were grown at 37° C. in a 5% CO2 humidified incubator in PRIM1640 supplemented with 10% FBS and 0.01 mg/mL bovine insulin. The cells were seeded at 4,000 cells/well in a 96-well plate. After incubated overnight, the cells were pretreated with a compound at predetermined concentrations or a vehicle for 16 h, followed by addition of a chemotherapy drug. After incubated for another 48 h, the CASPASE-GLO 3/7 reagent (100 μL/well) was added. The cells were mixed on an orbital shaker for 10 min and incubated at room temperature for 2 h. The 96-well plate was read with an ENVISION reader.

BALB/c mice [4] = test: 5-FU-induced diarrhea mouse model; format: in vivo; details: day 7
Method: A compound was evaluated in a 5-FU-induced diarrhea mouse model for its protective effect on the cytotoxicity induced by the chemotherapy drug 5-FU. On day 0, BALB/c mice (20-25 g, 7-8 weeks of age) were randomly divided into 3 groups (vehicle, 5-FU, and compound treatment) with 10 mice in each group. In the vehicle group, the mice were administered orally with the same medium in the same amount as used in the treatment group for the compound and then injected with the same medium in the same amount as used in the 5-FU group. In the 5-FU group, the mice were administered orally with the same medium in the same amount as used in the treatment group for the compound and then injected with 5-FU (175 mg/kg). In the treatment group, the mice were administrated orally with the compound and then injected with 5-FU (175 mg/kg). The compound was formulated with a 0.5% CMC solution.
as §2, with “day” for “Day”, “Diarrhea” for “The diarrhea”, “group—diarrhea” for “group−diarrhea”

[5] = 10 mg/kg oral, 4 h before and 8 h after irinotecan (240 mg/kg)

CDK6/cyclin D1, sequence (Q00534 whole entry): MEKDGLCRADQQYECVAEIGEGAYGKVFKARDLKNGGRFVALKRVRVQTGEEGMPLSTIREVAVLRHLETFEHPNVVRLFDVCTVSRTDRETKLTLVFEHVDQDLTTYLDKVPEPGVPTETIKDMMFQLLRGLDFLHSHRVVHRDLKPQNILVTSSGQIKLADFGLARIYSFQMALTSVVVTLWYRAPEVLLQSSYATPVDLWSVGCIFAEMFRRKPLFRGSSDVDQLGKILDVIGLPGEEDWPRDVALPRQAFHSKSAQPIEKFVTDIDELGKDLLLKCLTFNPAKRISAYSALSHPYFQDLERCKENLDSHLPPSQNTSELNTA
CDK6/cyclin D1, sequence (P24385 whole entry partner): as the sequence (P24385 whole entry partner) above

CC(=O)c1c(C)c2cnc(Nc3ccc(N4CCN(S(=O)(=O)NC(=O)OCCO)CC4)cn3)nc2n(C2CCCC2)c1=O [Compound A1, 2-hydroxyethyl ((4-(6-((6-acetyl-8-cyclopentyl-5-methyl-7-oxo-7,8-dihydropyrido[2,3-d]pyrimidin-2-yl)amino)pyridin-3-yl)piperazin-1-yl)sulfonyl)carbamate]
IC50 (CDK6/cyclin D1): ≤ 200 nM | EC50 [1]: > 10000 nM | Remission Rate (diarrhea remission rate) (BALB/c mice [2]; 5 mg/kg oral, 4 h before and 8 h after irinotecan (240 mg/kg)): 50% | Remission Rate (diarrhea remission rate) (BALB/c mice [2]; 25 mg/kg oral, 4 h before and 8 h after irinotecan (240 mg/kg)): 70% | Remission Rate (diarrhea remission rate) (BALB/c mice [2]; 100 mg/kg oral, 4 h before and 8 h after irinotecan (240 mg/kg)): 20% | IC50 (CDK4/cyclin D1): ≤ 200 nM | RPR (relative protection rate) ([3]; compound 0.1 μM, 5-Fu (10 μM)): 13% | RPR (relative protection rate) ([3]; compound 1 μM, 5-Fu (10 μM)): 82% | RPR (relative protection rate) ([3]; compound 5 μM, 5-Fu (10 μM)): 90% | RPR (relative protection rate) ([3]; compound 10 μM, 5-Fu (10 μM)): 68% | RPR (relative protection rate) ([3]; compound 100 μM, 5-Fu (10 μM)): 11%

CC(=O)c1c(C)c2cnc(Nc3ccc(N4CCN(S(=O)(=O)NC(=O)OC5CCOCC5)CC4)cn3)nc2n(C2CCCC2)c1=O [Compound A22, Tetrahydro-2H-pyran-4-yl ((4-(6-((6-acetyl-8-cyclopentyl-5-methyl-7-oxo-7,8-dihydropyrido[2,3-d]pyrimidin-2-yl)amino)pyridin-3-yl)piperazin-1-yl)sulfonyl)carbamate]
Remission Rate (diarrhea remission rate) (BALB/c mice [4]; 50 mg/kg oral, 8 h before and 4 h after 5-FU (175 mg/kg)): 55% | Remission Rate (diarrhea remission rate) (BALB/c mice [4]; 100 mg/kg oral, 8 h before and 4 h after 5-FU (175 mg/kg)): 36% | IC50 (CDK6/cyclin D1): ≤ 200 nM | EC50 [1]: > 10000 nM | Remission Rate (diarrhea remission rate) (BALB/c mice [2]; 5 mg/kg oral, 6 h before and 6 h after irinotecan (240 mg/kg)): 30% | Remission Rate (diarrhea remission rate) (BALB/c mice [2]; 25 mg/kg oral, 6 h before and 6 h after irinotecan (240 mg/kg)): 50% | IC50 (CDK4/cyclin D1): 200 to 500 nM | RPR (relative protection rate) ([3]; compound 0.5 μM, 5-Fu (10 μM)): 26% | RPR (relative protection rate) ([3]; compound 25 μM, 5-Fu (10 μM)): 64%

CC(=O)NCCOC(=O)NS(=O)(=O)N1CCN(c2ccc(Nc3ncc4c(C)c(C(C)=O)c(=O)n(C5CCCC5)c4n3)nc2)CC1 [Compound A15, 2-Acetamidoethyl ((4-(6-((6-acetyl-8-cyclopentyl-5-methyl-7-oxo-7,8-dihydropyrido[2,3-d]pyrimidin-2-yl)amino)pyridin-3-yl)piperazin-1-yl)sulfonyl)carbamate]
IC50 (CDK6/cyclin D1): ≤ 200 nM | EC50 [1]: 1000 to 10000 nM | Remission Rate (diarrhea remission rate) (BALB/c mice [2]; [5]): 40% | Remission Rate (diarrhea remission rate) (BALB/c mice [2]; 50 mg/kg oral, 4 h before and 8 h after irinotecan (240 mg/kg)): 60% | IC50 (CDK4/cyclin D1): 200 to 500 nM | RPR (relative protection rate) ([3]; compound 0.1 μM, 5-Fu (10 μM)): 28% | RPR (relative protection rate) ([3]; compound 1 μM, 5-Fu (10 μM)): 84% | RPR (relative protection rate) ([3]; compound 10 μM, 5-Fu (10 μM)): 71%

CCS(=O)(=O)N1CCN(c2ccc(Nc3ncc4c(C)c(C(C)=O)c(=O)n(C5CCCC5)c4n3)nc2)CC1 [Compound C2, 6-Acetyl-8-cyclopentyl-2-((5-(4-(ethylsulfonyl)piperazin-1-yl)pyridin-2-yl)-amino)-5-methylpyrido[2,3-d]pyrimidin-7(81)-one]
Remission Rate (diarrhea remission rate) (BALB/c mice [4]; 75 mg/kg oral, 8 h before and 4 h after 5-FU (175 mg/kg)): 50% | IC50 (CDK6/cyclin D1): ≤ 200 nM | Remission Rate (diarrhea remission rate) (BALB/c mice [2]; 75 mg/kg oral, 4 h before and 8 h after irinotecan (240 mg/kg)): 30% | IC50 (CDK4/cyclin D1): ≤ 200 nM | RPR (relative protection rate) ([3]; compound 0.2 μM, 5-Fu (10 μM)): 59% | RPR (relative protection rate) ([3]; compound 2 μM, 5-Fu (10 μM)): 79% | RPR (relative protection rate) ([3]; compound 20 μM, 5-Fu (10 μM)): 87%

CCC(=O)NS(=O)(=O)N1CCN(c2ccc(Nc3ncc4c(C)c(C(C)=O)c(=O)n(C5CCCC5)c4n3)nc2)CC1 [Compound A35, N-((4-(6-((6-Acetyl-8-cyclopentyl-5-methyl-7-oxo-7,8-dihydropyrido[2,3-d]-pyrimidin-2-yl)amino)pyridin-3-yl)piperazin-1-yl)sulfonyl)propionamide]
Remission Rate (diarrhea remission rate) (BALB/c mice [4]; 5 mg/kg oral, 12 h before 5-FU (175 mg/kg)): 40% | Remission Rate (diarrhea remission rate) (BALB/c mice [4]; 25 mg/kg oral, 12 h before 5-FU (175 mg/kg)): 50% | IC50 (CDK6/cyclin D1): ≤ 200 nM | EC50 [1]: 1000 to 10000 nM | Remission Rate (diarrhea remission rate) (BALB/c mice [2]; 10 mg/kg oral, 6 h before and 6 h after irinotecan (240 mg/kg)): 50% | Remission Rate (diarrhea remission rate) (BALB/c mice [2]; 100 mg/kg oral, 6 h before and 6 h after irinotecan (240 mg/kg)): 70% | IC50 (CDK4/cyclin D1): ≤ 200 nM | RPR (relative protection rate) ([3]; compound 2 μM, Irinotecan (20 μM)): 83% | RPR (relative protection rate) ([3]; compound 20 μM, Irinotecan (20 μM)): 81%

CC(=O)c1c(C)c2cnc(Nc3ccc(N4CCN(S(=O)(=O)OCOC(=O)C(C)(C)C)CC4)cn3)nc2n(C2CCCC2)c1=O [Compound B1, (((4-(6-((6-acetyl-8-cyclopentyl-5-methyl-7-oxo-7,8-dihydropyrido[2,3-d]-pyrimidin-2-yl)amino)pyridin-3-yl)piperazin-1-yl)sulfonyl)oxy)methyl pivalate]
Remission Rate (diarrhea remission rate) (BALB/c mice [4]; 10 mg/kg oral, 8 h before and 4 h after 5-FU (175 mg/kg)): 38% | IC50 (CDK6/cyclin D1): ≤ 200 nM | EC50 [1]: ≤ 1000 nM | Remission Rate (diarrhea remission rate) (BALB/c mice [2]; [5]): 60% | IC50 (CDK4/cyclin D1): ≤ 200 nM | RPR (relative protection rate) ([3]; compound 5 μM, Irinotecan (20 μM)): 90% | RPR (relative protection rate) ([3]; compound 50 μM, Irinotecan (20 μM)): 65% | RPR (relative protection rate) ([3]; compound 100 μM, Irinotecan (20 μM)): 32%

From patent US20250289813A1, “CDK INHIBITORS, PHARMACEUTICAL COMPOSITIONS, AND THERAPEUTIC APPLICATIONS” (ONQUALITY PHARMACEUTICALS CHINA LTD., priority 2022, published 2025)
